Source: PMC12434536, “Radiosynthesis and Preclinical Evaluation of a Carbon-11 Labeled Phosphodiesterase 7 Inhibitor for PET Neuroimaging” (ACS Medicinal Chemistry Letters, 2025)
Where two headings read alike, the source gives them in different places. Blank lines part the entries; values can stand above or below the molecule they belong to.

Legend:
PDE7A1 = conditions: Figure 1, literature compounds; cited from earlier work
PDE7A = conditions: Figure 1, literature compounds; cited from earlier work
PDE4B = conditions: Figure 1, literature compounds; cited from earlier work
PDE7 [1] = conditions: Figure 1, literature compounds; cited from earlier work
PDE4 = conditions: Figure 1, literature compounds; cited from earlier work
GSK3 = conditions: Figure 1, literature compounds; cited from earlier work
[2] = Lipophilicity by shake-flask method; type: physicochemical; conditions: pH 7.4, n-octanol/PBS, n = 3
Description: The general procedure for lipophilicity measurement was previously described, 4 with minor modification in this work. Briefly, the measurement of LogD value was carried out by mixing [11C]27 (radiochemical purity > 99%) with n-octanol (3.0 g) and PBS (0.1 M, 3.0 g) in a test tube. Both n-octanol and PBS were pre-saturated with each other prior to use. The tube was first vortexed for 5 min, followed by centrifugation (~3500-4000 rpm) for an additional 5 min. PBS and n-octanol were aliquoted, weighed and the radioactivity in each component was measured using a Cobra Model 5002/5003 gamma counter. The LogD was determined by Log [ratio of radioactivity in n-octanol and aqueous layer, respectively] (n = […]
For the evaluation of plasma protein binding,5 55.5 MBq radiotracer was added to 150 μL of plasma, which was pre-incubated under 37 °C for 5 min (n = 3). The samples were incubated at 37 °C for 10 min. To each 150 μL of radiotracer-plasma solution was added 300 μL of ice-cold PBS and all samples were briefly vortexed. […] The radioactivity (in Becquerel) was measured in the protein fraction (Aprotein), filtrate, and filter unit using a gamma counter (Wizard, PerkinElmer), Atotal was calculated as the sum of radioactivity, and the free fraction f u was calculated according to the following eq.: f u = 1-

[3] = In vitro stability of the formulated tracer (PBS with 10% ethanol; serum); type: in vitro ADME; conditions: 30, 60, 90 min; PBS containing 10% ethanol and serum of rodents, NHPs, humans
[4] = target: T1, HEK293-PDE7B recombinant cell lines (Homo sapiens, UniProt Q9NP56); assay: In vitro cell uptake and blocking of [11C]27; type: cell-based
T1 construct: host or cells: HEK293
T1 sequence (Q9NP56 whole entry): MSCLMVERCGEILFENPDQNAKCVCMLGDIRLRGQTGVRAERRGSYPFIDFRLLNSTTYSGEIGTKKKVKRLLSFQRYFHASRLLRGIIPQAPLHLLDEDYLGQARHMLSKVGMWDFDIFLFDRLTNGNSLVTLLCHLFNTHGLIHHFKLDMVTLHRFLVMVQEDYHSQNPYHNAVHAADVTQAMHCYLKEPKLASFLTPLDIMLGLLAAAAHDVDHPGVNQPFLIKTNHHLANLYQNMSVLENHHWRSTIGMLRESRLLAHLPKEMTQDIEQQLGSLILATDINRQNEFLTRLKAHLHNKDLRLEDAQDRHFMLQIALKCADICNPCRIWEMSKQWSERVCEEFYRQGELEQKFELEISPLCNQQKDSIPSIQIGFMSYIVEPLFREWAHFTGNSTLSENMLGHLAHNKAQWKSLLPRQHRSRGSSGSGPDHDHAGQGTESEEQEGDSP
Description: Control study: HEK293-PDE7B Recombinant cells (catalog#60412, BPS Bioscience) and HEK293 control cells (catalog# CRL-1573, ATCC) – both in logarithmic growth phase – were plated in a 24 well plate (2 × 10^5 cells per well) and cultured overnight. After 24 hr, each well was added 2 μCi of [ 11C]27, and incubated at 37 °C for 30 min or 60 min. The radioactive medium was aspirated and collected in a tube. The residual cells were washed twice with PBS, and then collected in the same tube. The cells were lysed with 1 N NaOH (200 μL) and washed twice with PBS, all the resulting solutions were collected in one tube.
The radioactivity in the collected supernatant and cell lysis buffer (600 μL/tube) was measured using a Cobra Model 5002/5003 gamma counter, respectively.
Blocking study: HEK293-PDE7B cells in logarithmic growth phase were plated in 24 well plate (2 × 10^5 cells per well) and cultured overnight. After 24 h, each well was added 2 μCi of [11C]27 with or without unlabeled reference compound 27 or BRL50481, respectively. The resulting culture medium contained 2 μCi of [ 11C]27, 1 µM of unlabeled compound 27 or BRL50481, and 5% DMSO. Cells were incubated at 37 °C for 60 min and samples were collected as described for the control study. The cell uptake was calculated according to the following eq.: cell uptake% = A lysis buffer/(A lysis buffer+Asupernate) (n = 4)

PDE7 [5] = assay: microPET imaging in mice; type: in vivo, C57BL/6 mice; conditions: p.i.
Description: C57BL/6 mice (female; 8 weeks, 20–25 g) and Sprague-Dawley rats (male;
Rodent PET scans were carried out using a Genisys 4 PET (Sofie Biosciences, Culver, CA,
manufacturer’s acquisition software. Volumes of interest, including whole brain, cortex,

PDE7 [6] = assay: PET imaging in rats (baseline and self-blocking); type: in vivo, Sprague-Dawley rats; conditions: rats
Description: page 10: All animal experiments were approved by the Institutional Animal Care and Use Committee of Massachusetts General Hospital or the National Institute of Radiological Sciences (Japan). C57BL/6 mice (female; 8 weeks, 20-25 g) and Sprague-Dawley rats (male; 8-9 weeks; 264-310 g) were kept on a 12 h light/12 h dark cycle and were allowed food and water ad libitum. Rodent PET scans were carried out using a […] (Sofie Biosciences, Culver, CA, USA) or a Siemens Inveon PET/CT system. Animals were kept under anesthesia using 1-2% (v/v) isoflurane in oxygen during the scan. The radiotracer (1.85 MBq for mice; 42-53 MBq for rats) was injected into the tail vein via a preinstalled catheter. A dynamic scan in 3D list mode was acquired for 60 min. The PET dynamic images were reconstructed using the manufacturer's acquisition software. Volumes of interest, including whole brain, cortex, striatum, hippocampus, thalamus and cerebellum were placed using AMIDE / PMOD software. The radioactivity was decay-corrected and expressed as standardized uptake value (SUV = radioactivity per mL tissue / injected radioactivity × bodyweight). S8

PDE7 [7] = assay: PET imaging in nonhuman primates (baseline and self-blocking); type: in vivo, Cynomolgus monkeys; conditions: monkeys
[8] = Whole-body ex vivo biodistribution; type: in vivo; conditions: CD-1 mice
Description: PET imaging in nonhuman primates
Cynomolgus monkeys used for PET/CT scan were deprived of food for 12h but allowed to drink water at any time. Animals (Male, bodyweight 5.0-5.2 kg) were anesthetized with ketamine, placed into the scanner (GE Discovery Elite 690, USA), and maintained with 2% isoflurane and 98% oxygen. A solution of [11C]27 (6.24–9.84 mCi) was injected into the monkey via a venous catheter, followed by a dynamic PET scan. For the blocking study, the blocking reagent reference compound 27 (0.4 or 1.0 mg/kg, iv) was used, followed by the injection of [11C]27. Time-activity curves of each brain region were extracted from the corresponding VOIs and brain uptake was decay-corrected and expressed as SUV. biodistribution studies in miceWhole-body ex vivo
A solution of [11C]27 (1.85 MBq/100 µL) was injected into CD-1 mice via the tail vein.
Animals were sacrificed at 5, 15, 30, and 60 min post radiotracer injection (n= 4 for each time point). […] The radioactivity in these tissues was measured using a Cobra Model 5002/5003 gamma counter, and all radioactivity measurements were decay corrected based on the half-life of carbon-11. The results are expressed as the percentage of injected dose per gram of wet tissue (%ID/g).

[9] = Radiometabolite analysis in brain and plasma; type: in vivo, SD rats; conditions: n = 2; for parent fraction in plasma: rat plasma
Description: After intravenous injection of [11C]27 through the tail vein, SD rats were sacrificed at 5 min and 30 min post injection. Blood samples were collected and centrifuged at 14,000 rpm for 3 min at 4 °C to separate the plasma. The supernatant was collected and added to an ice-cooled test tube containing 100 μL of CH 3CN. After vortex for 10 s, the mixture was centrifuged at 14000 rpm for 3 min at 4 °C for deproteinization. The supernatant was collected, and the process was repeated until no precipitations were observed when CH3CN was added. The rat brain was immediately dissected, homogenized with 400 μL of ice-cooled CH3CN, and then centrifuged at 14,000 rpm for 5 min at 4 °C. The supernatant was collected in a test tube containing 100 μL of ice-cooled CH 3CN, and the process (vortex and centrifuge) was repeated until no precipitations were observed when CH3CN was added. An aliquot of the supernatant (100 µL), obtained from the brain homogenate, was injected into and analyzed by a radio-HPLC system. The percentage of [11C]27 to total radioactivity (corrected for decay) on the HPLC charts was calculated as (peak area for [11C]27/total peak area) × 100. The same procedure was used for metabolite analysis in plasma.
Statistical analysis was performed by Student’s two-tailed t-test, and asterisks were used to indicate statistical significance: * p < 0.05, ** p ≤ 0.01, *** p ≤ 0.001 and ****p < 0.0001.

PDE7B = conditions: Figure 1, literature compounds; cited from earlier work
PDE7 [10] = conditions: cited from earlier work
PDE4A4 = conditions: Figure 1, literature compounds; cited from earlier work
PDE4D3 = conditions: Figure 1, literature compounds; cited from earlier work

SMILES: COc1cc(COC(=O)c2ccc(-c3ccccc3)o2)cc(OC)c1OC [Compound 11]
IC50 (PDE7A1): 5100 nM

SMILES: CCCCOc1nc2c(c(=O)n(C)c(=O)n2C)n1CCCC(=O)Nc1cc(C(C)(C)C)ccc1O [Compound 5]
IC50 (PDE7A): 5070 nM | IC50 (PDE4B): 5430 nM

SMILES: O=C1NS(=O)(=O)N(Cc2ccc(Cl)c(Cl)c2)c2ccccc21 [Compound 1]
IC50 (PDE7 [1]): 8000 nM | IC50 (PDE4): 19000 nM

SMILES: COc1ccccc1N1CCN(CCCC(=O)Nc2ccc(C(C)(C)C)cc2)CC1 [Compound 22]
IC50 (PDE7A): 27000 nM | IC50 (PDE4B): 96000 nM

SMILES: COc1ccc(-c2cc3c(n2-c2ccc(S(=O)(=O)Nc4nc(C)cc(C)n4)cc2)CCC(N2CCN(C)CC2)C3)cc1C (centres unmarked) [Compound 20]
IC50 (PDE4): 630 nM | IC50 (PDE7A): 14 nM

SMILES: Cn1c(-c2ccoc2)nc(=O)c2ccccc21 [Compound 16]
IC50 (PDE7A): 96 nM

SMILES: O=C1Nc2c(Br)cccc2C2(CCCCC2)N1 [Compound 19]
IC50 (PDE7 [1]): 70 nM

SMILES: c1ccc(-c2nc(=NCc3cccnc3)sn2-c2ccccc2)cc1 [Compound 23]
IC50 (PDE7 [1]): 380 nM | IC50 (GSK3): 1280 nM

SMILES: CCOC(=O)c1sc(Nc2nc(N3CCNCC3)c3c(n2)N(Cc2cc(OC)c(OC)c(OC)c2)CC3)nc1C [Compound 7]
IC50 (PDE7 [1]): 6 nM

logD [2]: 3.67 ± 0.04 | radioactivity uptake in HEK293-PDE7B cells versus control cells ([4]; 30 and 60 min incubation): 6–7 fold | time to peak SUV in brain (PDE7 [5]): ≤ 2 min | plateau of brain uptake (PDE7 [6]; at 20 min postinjection): 0.5 SUV | highest SUV values in brain (PDE7 [6]; at approximately 5 min postinjection): > 2 SUV | peak SUV (SUVmax) in brain (PDE7 [7]; baseline): 3 SUV | time of peak SUV in brain (PDE7 [7]; p.i.): about 3 min | radioactivity accumulation in heart ([8]; 5 min p.i.): up to 24 % ID/g | cardiac uptake ([8]; within 60 min): less than 2% | intact parent fraction in brain ([9]; rat brain, 5 min): More than 98% | parent fraction in brain homogenates ([9]; rat brain, 30 min postinjection): more than 75% | parent fraction in plasma ([9]; 5 min p.i.): 70% ± 18% | parent fraction in plasma ([9]; 30 min p.i.): 19% ± 0.6%
SMILES: [11CH3]Oc1ccc(Cl)c2c1C1(CCCCC1)NC(=O)N2 [[^11C]27]
in vitro stability [3]: no obvious degradation or radiolysis was found

SMILES: O=c1[nH]c(=S)[nH]c2cc(F)c(F)cc12 [Compound 15]
IC50 (PDE7A): 74 nM

blockade of [11C]27 cell uptake ([4]; blocker 1 μM, 60 min incubation, PDE7B overexpressing HEK293 cells, n = 4): ~55%
SMILES: Cc1ccc([N+](=O)[O-])cc1S(=O)(=O)N(C)C [Compound 17]
IC50 (PDE7A): 150 nM | IC50 (PDE7B): 12100 nM

SMILES: O=C1Nc2c(Cl)ccc(Oc3c(F)cccc3C(=O)N3CC([18F])C3)c2C2(CCCCC2)N1 [[^18F]-P7-2302]
affinity to PDE7 (PDE7 [10]; earlier 18F-isotopologue of the same spiro quinazoline structure): 0.18 nM

SMILES: O=C1Nc2ccc(Cl)c(Cl)c2C2(CCCCC2)N1 [Compound 18]
IC50 (PDE7 [1]): 14 nM

SMILES: CCn1c(NC(C)C)nc2c(C3CCN(C(C)=O)C3)csc2c1=O (centres unmarked) [Compound 6]
IC50 (PDE7A): 15 nM | IC50 (PDE4B): 1900 nM

SMILES: CCOC(=O)c1sc(Nc2nc(NCc3ccc(S(N)(=O)=O)cc3)c3c(ncn3CC)n2)nc1C [Compound 4]
IC50 (PDE7 [1]): 11 nM

SMILES: COc1ccc(C2=NN(C3CCN(C(=O)N4CCOCC4)CC3)C(=O)C3CC=CCC23)cc1Cl (centres unmarked) [Compound 21]
IC50 (PDE7 [1]): 23 nM | IC50 (PDE4): 2.3 nM

SMILES: O=C(Nc1ccc(N2CCOCC2)cc1)c1cn(Cc2c(F)cccc2Cl)c2ccc(=O)[nH]c2c1=O [Compound 13]
IC50 (PDE7A1): 13 nM | IC50 (PDE4A4): > 1000 nM

SMILES: O=[N+]([O-])c1ccc(Sc2ccncc2)c(Cl)c1 [Compound 10]
IC50 (PDE7 [1]): 180 nM

SMILES: Nc1nc2c(nc(Br)n2C2CCCc3cccc(Br)c32)c(=O)[nH]1 (centres unmarked) [Compound 3]
IC50 (PDE7 [1]): 1210 nM

SMILES: O=C1Nc2c(Cl)ccc(OCC[18F])c2C2(CCCCC2)N1 [[^18F]-MICA-003]
affinity to PDE7 (PDE7 [10]; ref Thomae et al.): 17 nM

SMILES: COc1ccc(C(=O)CN2c3c(sc4ccccc34)C(=O)NS2(=O)=O)cc1 [Compound 2]
IC50 (PDE4): 30000 nM

SMILES: Cn1nc(-c2ccc(C(N)=O)cc2)s/c1=N\C1CCCCC1 [Compound 12]
IC50 (PDE7A1): 61 nM | IC50 (PDE4D3): 15300 nM
